We go through 17 molecules from paper PMC10915964, “Identifying ligands for the PHD1 finger of KDM5A through high-throughput screening†” (RSC Chemical Biology, 2023).

Where no end group is shown, it is not given here. 5‑FAM = 5-carboxyfluorescein

What is called IC50 is the point on the concentration scale where inhibition reaches its midpoint. Usually Ki stands for a dissociation constant, usually derived from enzyme kinetics or from competition with a known ligand. The Kd is the concentration at which binding is half-saturated. Read a high Kd as a looser complex.

The target of experiment [1] is T1, GST-PHD1 (PHD1 finger of KDM5A) (Homo sapiens, UniProt P29375).
T1 construct: GST-PHD1(S287-E344); made in house; host or cells: E. coli BL21 (DE3), pET41a
T1 sequence (P29375 287-344): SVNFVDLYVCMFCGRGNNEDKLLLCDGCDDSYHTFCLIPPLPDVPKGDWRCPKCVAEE
As to the kind of experiment: Competitive-binding fluorescence polarization (FP) assay, displacement of 5-FAM H3K4me0 10-mer from GST-PHD1. To be noted: for %I at 1 mM / inhibition at 1000 µM: 1 mM compound, quadruplicate (n = 1 for R1 = OBn; n = 2 for R1 = Me); for inhibition at 1000 µM: read-out: %I at 1 mM; for IC50: HTS assay conditions, read-out: approximate IC50. The source says:
Fluorescence polarization (FP) has been widely used as a biophysical method to detect and quantify disruptions in protein–protein and protein–peptide interactions.[33,34] It served as the primary assay in the high-throughput screening (HTS) campaign to identify ligands for the PHD1 finger (Fig. 1b). The FP assay includes a GST-labeled […] construct and its H3K4me0 10-mer peptide substrate (Fig. 1c and d).[21,22] […]
Fig. 2 Dose-dependent inhibition of GST-PHD1 − H3 tail interaction by screen hits obtained from HTS of the NCI collection. […] DMSO is used as the negative (−) control (0% inhibition).
Fluorescence polarization high-throughput screening
To test the activity of purified GST-PHD1(S287-E344), direct-binding and competitive-binding fluorescence polarization (FP) were done, as previously described.3,4 For screening, GST-PHD1(S287-E344) was diluted in buffer (50 mM HEPES, pH 7.5, 50 mM KCl, 0.01% Tween-20, 1 mM TCEP) with 20 nM 5-carboxyfluorescein-labeled H3 10-mer peptide and with or without 0.1% bovine gamma globulin (BGG). This was treated as the assay buffer (with 0.1% BGG) and also as the negative control. For the positive control, 120 μM unlabeled H3K4 10-mer peptide was added to the assay buffer. The assay buffer was dispensed using the EL406 Biotek liquid dispenser onto black, round-bottom low volumes 384-microwell plates (Corning 4514) to a final volume of 10 μL per well. DMSO (10 nL or 50 nL) or screening compounds at 10 nL (ChemBridge Premium Diversity collection at 10 μM final) or 50 nL (ML fragments and NCI libraries at 50 μM final) was added to plates containing the assay buffer using the BioMek liquid handler/dispenser. The final DMSO in the samples was either 0.1% or 0.5%. Fluorescence polarization measurements were performed directly and after 45 minutes of incubation at room temperature using a Perkin Elmer Envision and XCite 2105 multimode microplate reader equipped with a stacker. Excitation light was delivered with a xenon flash lamp at 480/30 nm (BW) and emission was collected after passing through an emission filter (535/25 nm). For fluorescence polarization experiments, two 535/40 nm filters (S, P) and dual dichroic D505/D535 nm mirrors were used.
For FP-based assay optimization, the assay signal dynamic range was evaluated using the negative and positive control buffers with varying amounts of GST-PHD1 (0.5, 1, 1.5, or 2 μM) in the presence or absence of 0.1% BGG. For each condition, buffer was dispensed into 3 columns of a 384-well plate (48 wells each) using the BioMek liquid dispenser and the FP signal was recorded. The Z′ value reports on the assay robustness by reflecting both the dynamic range and the data variation associated with assay measurements.5 The Z′ value is given by the following equation: […]
where σ represents the standard deviation, PC represents the positive control, NC represents the negative control, and μ represents the mean value of the FP signal.
Screen results were analyzed using the UCSF SMDC web application called HiTS […]
(http://smdc.ucsf.edu/hits/). […]
equal to 3 standard deviations of the mean percent inhibition values, where the negative control is set to 0% inhibition and the positive control is set to 100% inhibition. Cheminformatics analysis on the screen hits was done using DataWarrior, an open-source program for data visualization and analysis with chemical intelligence.6 The Tanimoto coefficient was used to gauge the similarity and diversity of screen hits and cluster any compounds with greater than 75% similarity.
Screen hits were repurchased when available. Structurally similar derivatives were purchased when exact compounds were not available for purchase. Compound purity was confirmed by LCMS. All compounds were dissolved in DMSO-d6 to a final concentration of 40 mM unless otherwise specified. All putative screen hits were confirmed in dose-response using the competitive binding fluorescence polarization […]
assay. […]

The target of experiment [2] is T2, 15N-labeled PHD1 (KDM5A) (Homo sapiens, UniProt P29375).
T2 construct: PHD1(S287-E344) construct; GST (N, cleaved yes); made in house; host or cells: E. coli BL21 (DE3), M9 minimal media with 15N ammonium chloride
T2 sequence (P29375 287-344): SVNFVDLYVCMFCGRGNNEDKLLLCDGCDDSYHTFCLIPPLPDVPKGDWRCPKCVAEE
As to the kind of experiment: 2D 1H-15N HSQC NMR binding assay. To be noted: for perturbation of some residues: most perturbed residues. As to the method: The binding of the ChemBridge screen hits to PHD1 was further evaluated using 2D ^1H–^15N HSQC NMR spectroscopy. This direct binding method allowed us to monitor binding by observing any ligand-induced changes in the previously assigned ^1H–^15N PHD1 amino acid resonances.[12] The HSQC spectra of 50 μM ^15N-labeled PHD1 with DMSO were overlaid with the spectra of the ^15N-labeled PHD1 incubated with 1 mM compound. […] Compound 715 958 was insoluble in the NMR buffer at this concentration and was not evaluated. […]
Nuclear magnetic resonance (NMR) binding assays
A PHD1(S287-E344) construct was used in NMR studies, as previously described.4 Briefly, the GST-PHD1 fusion construct was expressed in M9 minimal media containing 15N ammonium chloride. The labeled GST-PHD1 was purified and the GST tag was cleaved as described in the Expression of GST-PHD1(S287-E344) and GST tag removal section. For 2D 1H, 15N Fast HSQC (FHSQC) binding experiments, 50 μM 15N-labeled PHD1 was used and spectra were measured after the addition of DMSO-d6 or compound at 1 mM in DMSO-d6 for single concentration experiments. The NMR samples were prepared in 50 mM HEPES pH 7.5, 150 mM KCl buffer with 5 mM BME, 100 μM ZnCl2, and 10% D2O at a final concentration of 2.4% DMSO-d6. The HSQC spectra were collected on a 600 MHz Bruker Avance NEO spectrometer equipped with an actively shielded Z-gradient […] TCI cryoprobe using programs from the pulse program library (TopSpin 4.0.6). FHSQC acquisition parameters were: NS = 8, acquisition time = 0.106 s 1H, 0.060 s 15N. All experiments were carried out at 298 K (calibrated with 4% v/v MeOH […]
For 2D 1H, 15N FHSQC titration experiments, 50 μM 15N-labeled PHD1 was incubated with 0, 0.5, 1, 2, or 4 mM B2 sample with a final concentration of 2.9% DMSO-d6 for all samples. The NMR samples were prepared in 50 mM HEPES pH 7.5, 150 mM KCl buffer with 5 mM BME, 100 μM ZnCl2, and 5% D2O. The 2D 15N FHSQC spectra for the titration series were recorded at 298 K on a Bruker 800 MHz AVANCE-I spectrometer equipped with an actively shielded Z-gradient TCI cryoprobe using programs from the pulse program library (TopSpin 4.0.8). FHSQC acquisition parameters were: NS = 8, acquisition time = 0.082 s 1H, 0.045s 15N. The analysis of the chemical shift perturbation of the amide cross-peaks during the titration with the ligand was performed using CCPNMR Analysis software and use PHD1 with 2.9% DMSO-d6 as the reference.7 Apo PHD1 backbone assignments were imported from the BMRB (entry 30808).4 The chemical shift perturbations for all the NMR experiments were calculated in CCPNMR v3.2, which uses the following equation:
∆ chemical shift = ∆H2 + 0.15(∆N)2

The target of experiment [3] is GST-labeled PHD1(S283-E344) construct of KDM5A. The experiment can be described thus: fluorescence polarisation; direct binding of C-terminal 5-FAM H3 10-mer peptide to GST-PHD1; triplicate measurements. A general note: Polarisation of emitted light reports the rotation of a fluorescent probe.
The target in experiment [4] is GST-labeled PHD1(S283-E344) construct of KDM5A (two Zn(II) ions bound (PHD zinc finger)). As to the kind of experiment: fluorescence polarisation; competitive displacement of 5-FAM H3 10-mer (10 nM) from GST-PHD1 (2 μM) by unlabeled H3 10-mer peptide; triplicate measurements. To be noted: both partners purified.

`CC(=O)c1c(C)oc2ccc(NS(=O)(=O)c3cccc(C(=O)O)c3)cc12` [Compound B2, 3-(N-(3-acetyl-2-methylbenzofuran-5-yl)sulfamoyl)benzoic acid]: in experiment [1], the “%I at 1 mM” value is 45% and the inhibition at 1000 µM amounted to 45%. Also, the half-inhibitory concentration (IC50) in experiment [1] (FP concentration-response) is ~1300 µM. The “chemical shift perturbations on PHD1 in titration” value in experiment [2] (B2 at 0.5, 1, 2 and 4 mM with 50 μM 15N PHD1) is reported as “chemical shift perturbations are small”. Consider `COC(=O)c1cccc(S(=O)(=O)Nc2ccc3oc(C)c(C(C)=O)c3c2)c1` [Compound B6, methyl 3-(N-(3-acetyl-2-methylbenzofuran-5-yl)sulfamoyl)benzoate], for which, in experiment [1], the inhibition at 1000 µM amounted to 4%. For `Cc1oc2ccc(NS(=O)(=O)c3ccccc3)cc2c1C(=O)OCc1ccccc1` [Compound 8018-7366], the inhibition at 1000 µM in experiment [1] is 6%. Also, the “potency relative to parent hit” value in experiment [1] (FP concentration-response, compared with 516 969 or 990 099) is “drastically reduced potency”.

`CC(=O)c1c(C)oc2ccc(NS(=O)(=O)c3cccc(Cl)c3)cc12` [Compound B7, N-(3-acetyl-2-methylbenzofuran-5-yl)-3-chlorobenzenesulfonamide]: the inhibition at 1000 µM in experiment [1] was determined as 13%.

With `CC(=O)c1c(C)oc2ccc(NS(=O)(=O)c3ccc(C(N)=O)cc3)cc12` [Compound B3, 4-(N-(3-acetyl-2-methylbenzofuran-5-yl)sulfamoyl)benzamide], the inhibition at 1000 µM in experiment [1] came to 12%. `C[C@H](N)C(=O)N[C@@H](CCCNC(=N)N)C(=O)N[C@H](C(=O)N[C@@H](CCCCN)C(=O)N[C@@H](CCC(N)=O)C(=O)N[C@H](C(=O)N[C@@H](C)C(=O)N[C@@H](CCCNC(=N)N)C(=O)N[C@@H](CCCCN)C(=O)N[C@@H](CO)C(=O)O)[C@@H](C)O)[C@@H](C)O` [unlabeled H3 peptide, reference compound] gave a Ki in experiment [1] (displacement of 5-FAM H3 10-mer (10 nM) from GST-PHD1 (2 μM)) of 0.95 ± 0.14 µM. `Cc1oc2ccc(NS(=O)(=O)c3ccc(C(=O)O)cc3)cc2c1C(=O)OCc1ccccc1` [990 099]: the inhibition at 1000 µM in experiment [1] stood at 45%. For the same molecule, the IC50 in experiment [1] (FP concentration-response) is > 1500 µM. In experiment [2] (50 μM 15N PHD1, 1 mM compound), the “average shifts (CSP on PHD1)” value is given as 0.0025–0.0033 ppm and the “perturbation of some residues” value is recorded as “greater than 0.008 ppm”. As for `CC(=O)c1c(C)oc2ccc(NS(=O)(=O)c3cccc(C(N)=O)c3)cc12` [Compound B4, 3-(N-(3-acetyl-2-methylbenzofuran-5-yl)sulfamoyl)benzamide], in experiment [1], the inhibition at 1000 µM stood at 9%.

On to `O=C(C1CC1)N1CCc2sc(S(=O)(=O)Nc3cccc(Cl)c3F)cc2C1` [990 856], for which the “average shifts (CSP on PHD1)” value in experiment [2] (50 μM 15N PHD1, 1 mM compound) was ≤ 0.002 ppm. As for `CSc1nnc2c(n1)OC(c1ccncc1)Nc1ccccc1-2` (stereo not shown) [516 969], in experiment [2] (50 μM 15N PHD1, 1 mM compound), the “average shifts (CSP on PHD1)” value is 0.0025–0.0033 ppm, the “Δδ of residue Cys322” value stood at 0.009 ppm and the “perturbation of some residues” value was “greater than 0.008 ppm”. Consider `CC(=O)c1c(C)oc2ccc(NS(=O)(=O)c3ccc(C(=O)O)cc3)cc12` [Compound B1, 4-(N-(3-acetyl-2-methylbenzofuran-5-yl)sulfamoyl)benzoic acid], for which, in experiment [1], the “%I at 1 mM” value was found to be 38% and the inhibition at 1000 µM turned out to be 38%. For `CC(=O)c1c(C)oc2ccc(N(C(C)=O)S(=O)(=O)c3ccc(C(=O)O)cc3)cc12` [7 917 645], the inhibition at 1000 µM in experiment [1] worked out at 30%. In the case of `Cc1c(CCC(=O)N2CCCC2C(=O)O)c(=O)oc2c(C)c(O)ccc12` (stereo not shown) [991 830], the “average shifts (CSP on PHD1)” value in experiment [2] (50 μM 15N PHD1, 1 mM compound) is ≤ 0.002 ppm. With `CCOC(=O)c1ccc(S(=O)(=O)Nc2ccc3oc(C)c(C(C)=O)c3c2)cc1` [Compound B5, ethyl 4-(N-(3-acetyl-2-methylbenzofuran-5-yl)sulfamoyl)benzoate], in experiment [1], the inhibition at 1000 µM was found to be 11%. For the molecule `CCc1nnc(NS(=O)(=O)c2ccc(NC(=O)c3ccc(OC)c(OC)c3)cc2)s1` [988 385], in experiment [2] (50 μM 15N PHD1, 1 mM compound), the “average shifts (CSP on PHD1)” value is on record as ≤ 0.002 ppm and the “Δδ of residue N304” value is > 0.01 ppm. For ARTKQTARKS-{5‑FAM} [C-terminal 5-FAM H3 10-mer peptide, P68431 2-11], the Kd in experiment [3] was 0.95 µM.

B1: unlabeled H3 10-mer peptide (peptide, UniProt P68431 2-11, looked up)
peptide: ARTKQTARKS
notes: histone H3 N-terminal tail 10-mer with unmodified K4 (H3K4me0); also called unlabeled H3K4me0 10-mer; H3K4me0 10-mer peptide
For the molecule B1, in experiment [4], the affinity corresponds to a Ki of 0.95 ± 0.14 µM.
